Calls of active or inactive are those of the source.
What was measured:
[1] = target: T1, Corticotropin-releasing factor receptor 2/Corticotropin-releasing factor-binding protein (Homo sapiens, UniProt P24387+Q13324); test: Dose Response confirmation of uHTS hits for small molecule antagonists of the CRF-binding protein and CRF-R2 receptor complex.; type: functional; conditions: read-out: IC50_Mean
T1 sequence (Q13324 whole entry): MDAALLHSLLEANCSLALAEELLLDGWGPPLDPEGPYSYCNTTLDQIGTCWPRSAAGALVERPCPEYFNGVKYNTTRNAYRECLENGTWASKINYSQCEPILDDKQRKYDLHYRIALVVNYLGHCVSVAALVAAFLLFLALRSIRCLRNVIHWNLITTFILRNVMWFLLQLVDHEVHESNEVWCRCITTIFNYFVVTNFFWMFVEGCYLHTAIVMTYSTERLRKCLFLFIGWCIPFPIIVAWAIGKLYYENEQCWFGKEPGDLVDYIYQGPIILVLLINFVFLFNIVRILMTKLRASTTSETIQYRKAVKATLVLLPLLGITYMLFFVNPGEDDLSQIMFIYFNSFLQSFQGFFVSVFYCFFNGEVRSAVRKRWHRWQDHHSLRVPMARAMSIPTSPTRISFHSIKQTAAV
T1 sequence (P24387 whole entry): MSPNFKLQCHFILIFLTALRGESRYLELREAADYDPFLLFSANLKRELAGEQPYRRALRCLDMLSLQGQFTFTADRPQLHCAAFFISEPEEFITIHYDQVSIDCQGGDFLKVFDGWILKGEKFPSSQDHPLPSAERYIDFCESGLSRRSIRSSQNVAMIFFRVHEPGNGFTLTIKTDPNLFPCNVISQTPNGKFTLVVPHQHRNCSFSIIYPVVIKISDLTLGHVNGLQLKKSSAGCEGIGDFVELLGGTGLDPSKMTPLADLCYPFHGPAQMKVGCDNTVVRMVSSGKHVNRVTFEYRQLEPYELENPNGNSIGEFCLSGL

[2] = target: T2, COUP transcription factor 2 (Homo sapiens, UniProt P24468); test: Luminescence-based cell-based high throughput dose response assay to identify inhibitors of COUP-TFII (NR2F2).; type: functional;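 also: HEK293 cells transiently cotransfected with COUP-TFII expression vector and reporter; luciferase reporter luminescence driven by COUP-TFII from the pX2-168 reporter plasmid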
T2 sequence (P24468 whole entry): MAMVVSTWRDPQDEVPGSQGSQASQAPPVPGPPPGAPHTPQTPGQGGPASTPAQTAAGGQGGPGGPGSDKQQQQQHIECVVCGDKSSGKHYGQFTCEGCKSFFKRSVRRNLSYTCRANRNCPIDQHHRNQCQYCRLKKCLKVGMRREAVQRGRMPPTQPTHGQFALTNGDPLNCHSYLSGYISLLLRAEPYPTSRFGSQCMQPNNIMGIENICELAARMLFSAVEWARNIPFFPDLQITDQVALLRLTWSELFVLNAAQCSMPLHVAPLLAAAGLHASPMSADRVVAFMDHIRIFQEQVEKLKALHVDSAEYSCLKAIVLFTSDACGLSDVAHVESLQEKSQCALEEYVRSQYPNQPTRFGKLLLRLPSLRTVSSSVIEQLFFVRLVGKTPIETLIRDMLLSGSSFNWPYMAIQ

[3] = HeLa cell cytotoxicity, dose response, cytotoxicity control for MgcRacGAP inhibitor project (AID 624300); type: functional
[4] = target: Glutathione-S-transferase (Schistosoma japonicum, UniProt Q26513); test: biotin-GST/anti-GST TR-FRET signal inhibitors, dose response, artefact control for Vif-APOBEC3G degradation inhibitor project, biochemical (AID 1117362); type: functional
Chain of Glutathione-S-transferase (Q26513 whole entry): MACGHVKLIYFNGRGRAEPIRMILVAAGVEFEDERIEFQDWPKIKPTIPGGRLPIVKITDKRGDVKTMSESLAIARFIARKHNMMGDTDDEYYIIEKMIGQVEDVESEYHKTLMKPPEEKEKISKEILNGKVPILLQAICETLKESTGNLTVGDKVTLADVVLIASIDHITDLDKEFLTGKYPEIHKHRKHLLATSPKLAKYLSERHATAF

[5] = THP-1 cell cytotoxicity, dose response, cytotoxicity control for Vif-APOBEC3G degradation inhibitor project, THP-1 cells (AID 1117359); type: functional; conditions: Human immunodeficiency virus 1, THP-1
[6] = target: Nonstructural protein 1 (Influenza A virus, UniProt Q194T2); type: functional, Influenza A virus (A/California/07/2009(H1N1))
Chain of Nonstructural protein 1 (Q194T2 whole entry): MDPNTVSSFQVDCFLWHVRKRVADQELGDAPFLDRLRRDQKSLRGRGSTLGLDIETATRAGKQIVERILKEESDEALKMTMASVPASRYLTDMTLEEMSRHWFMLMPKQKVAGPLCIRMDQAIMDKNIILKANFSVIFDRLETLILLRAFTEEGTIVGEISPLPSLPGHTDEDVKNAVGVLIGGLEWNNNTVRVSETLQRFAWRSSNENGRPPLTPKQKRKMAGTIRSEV

[7] = target: T3, Histone-lysine N-methyltransferase NSD2 (Homo sapiens, UniProt O96028); type: biochemical
T3 sequence (O96028 whole entry): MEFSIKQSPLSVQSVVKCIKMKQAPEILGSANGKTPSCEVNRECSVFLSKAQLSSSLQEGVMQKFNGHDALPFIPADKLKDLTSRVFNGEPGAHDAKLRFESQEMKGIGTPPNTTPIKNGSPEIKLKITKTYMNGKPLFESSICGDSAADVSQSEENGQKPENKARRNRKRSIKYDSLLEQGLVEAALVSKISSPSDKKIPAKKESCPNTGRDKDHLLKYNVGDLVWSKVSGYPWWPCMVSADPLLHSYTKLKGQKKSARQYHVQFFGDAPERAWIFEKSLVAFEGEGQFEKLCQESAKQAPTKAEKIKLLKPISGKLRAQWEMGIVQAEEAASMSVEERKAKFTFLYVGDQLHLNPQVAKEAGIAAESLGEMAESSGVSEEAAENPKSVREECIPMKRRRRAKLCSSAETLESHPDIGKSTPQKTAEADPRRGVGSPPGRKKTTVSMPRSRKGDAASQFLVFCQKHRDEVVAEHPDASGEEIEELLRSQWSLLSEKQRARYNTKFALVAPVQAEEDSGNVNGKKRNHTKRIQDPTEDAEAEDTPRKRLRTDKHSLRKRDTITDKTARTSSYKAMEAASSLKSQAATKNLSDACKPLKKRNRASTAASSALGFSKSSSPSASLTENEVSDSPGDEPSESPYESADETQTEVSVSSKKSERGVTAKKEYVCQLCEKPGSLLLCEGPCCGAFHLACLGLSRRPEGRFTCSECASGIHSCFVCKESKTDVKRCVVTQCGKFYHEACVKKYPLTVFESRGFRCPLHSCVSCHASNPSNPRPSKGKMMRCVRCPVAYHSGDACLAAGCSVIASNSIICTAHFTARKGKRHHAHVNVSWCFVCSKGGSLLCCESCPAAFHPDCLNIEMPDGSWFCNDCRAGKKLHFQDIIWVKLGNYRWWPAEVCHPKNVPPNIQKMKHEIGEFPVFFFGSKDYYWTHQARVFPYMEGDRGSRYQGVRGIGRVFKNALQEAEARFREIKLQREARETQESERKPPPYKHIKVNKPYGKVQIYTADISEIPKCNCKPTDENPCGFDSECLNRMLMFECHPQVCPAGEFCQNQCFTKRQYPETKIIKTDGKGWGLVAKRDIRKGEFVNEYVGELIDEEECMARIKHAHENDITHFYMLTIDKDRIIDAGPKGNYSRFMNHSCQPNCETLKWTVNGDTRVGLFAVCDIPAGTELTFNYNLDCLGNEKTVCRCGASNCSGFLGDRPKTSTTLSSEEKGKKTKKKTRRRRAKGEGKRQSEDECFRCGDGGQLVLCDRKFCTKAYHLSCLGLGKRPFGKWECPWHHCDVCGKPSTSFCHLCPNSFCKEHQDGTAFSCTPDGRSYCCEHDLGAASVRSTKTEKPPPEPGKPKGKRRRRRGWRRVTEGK

[8] = target: T1, Corticotropin-releasing factor receptor 2/Corticotropin-releasing factor-binding protein; test: activators of CRF receptor 2 with binding protein – uHTS hits, confirmation (AID 602473); type: functional; conditions: read-out: EC50_Mean
[9] = target: T4, Rac GTPase-activating protein 1 (Homo sapiens, UniProt Q9H0H5); test: MgcRacGAP GTPase-activating activity inhibitors, confirmation, biochemical, ADP Hunter fluorescence, primary and confirmatory (AID 624330); type: functional
T4 sequence (Q9H0H5 whole entry): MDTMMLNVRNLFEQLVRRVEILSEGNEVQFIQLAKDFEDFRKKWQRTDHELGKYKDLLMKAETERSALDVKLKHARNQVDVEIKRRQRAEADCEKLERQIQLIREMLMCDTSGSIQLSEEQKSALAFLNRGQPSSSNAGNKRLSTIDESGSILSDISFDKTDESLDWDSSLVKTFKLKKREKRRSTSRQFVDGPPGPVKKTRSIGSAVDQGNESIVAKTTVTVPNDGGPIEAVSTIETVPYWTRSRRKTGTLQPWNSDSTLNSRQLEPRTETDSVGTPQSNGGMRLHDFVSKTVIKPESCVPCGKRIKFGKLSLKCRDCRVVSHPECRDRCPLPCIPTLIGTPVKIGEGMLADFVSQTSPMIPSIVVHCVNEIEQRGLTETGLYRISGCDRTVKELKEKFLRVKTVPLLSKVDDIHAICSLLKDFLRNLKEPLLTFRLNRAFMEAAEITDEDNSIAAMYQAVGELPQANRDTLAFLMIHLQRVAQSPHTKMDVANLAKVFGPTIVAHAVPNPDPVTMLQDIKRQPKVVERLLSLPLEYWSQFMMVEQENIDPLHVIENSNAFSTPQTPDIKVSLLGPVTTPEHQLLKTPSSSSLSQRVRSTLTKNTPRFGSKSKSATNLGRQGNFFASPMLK

[10] = target: Protein Tat (Human immunodeficiency virus type 1 group M subtype B (isolate HXB2)(HIV-1), UniProt P04608); type: functional;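 also: tat binding to TAR RNA read out by fluorescence polarization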
Chain of Protein Tat (P04608 whole entry): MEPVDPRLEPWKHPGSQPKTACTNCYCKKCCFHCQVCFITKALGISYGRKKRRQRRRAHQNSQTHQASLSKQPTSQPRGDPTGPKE

[11] = P. falciparum Dd2 growth inhibitors, dose response, SYBR Green, dry powder samples, set 4 (AID 1159572); type: functional, cell-based

In the case of Cc1cc2c(=Cc3ccc(N(C)C)cc3)c3ccccc3n2[n+]1C, the IC50 [1] is reported as > 47.1 µM (inactive), the IC50 [2] is reported as 3.87 µM (active) and the CC50 [3] is reported as 18.5 µM (active). The IC50 [4] was 7.36 µM (active), the CC50 [5] was 1.02 µM (active) and the IC50 [6] was 20.9 µM (active). The AC50 [7] was 17.6 µM (active), the EC50 [8] was > 53 µM (inactive) and the IC50 [9] was 45.4 µM (active).

For COc1ccccc1NC(=O)CN(Cc1ccco1)C(=O)c1cccs1, the IC50 [10] was > 100 µM (inconclusive).

With COc1ccc2c3c([nH]c2c1)[C@H](CO)N(C(C)=O)CC31CCN(S(=O)(=O)c2cccs2)CC1 the AC50 [11] was 8.2 µM (active).
